According to PubChem BioAssay (NCI):
Where “and” joins values, the source holds several entries; their conditions need not be identical. Identical values can stand only once.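 A five-concentration, 48-hour dose response in 96-well plates underlies each endpoint, interpolated linearly between surrounding concentrations. GI50 = concentration required for 50% inhibition of growth. TGI: total growth inhibition.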

Columns and labels:
Assay in all cases: NCI anticancer screen, dose series, 48 h
NCI-H460 lung = test system: NCI-H460 lung
EKVX NSCLC = test system: EKVX NSCLC
LXFL 529 NSCLC = test system: LXFL 529 NSCLC
NCI-H23 lung = test system: NCI-H23 lung
SW-620 colon = test system: SW-620 colon
HL-60(TB) leukemia = test system: HL-60(TB) leukemia
SN12C renal = test system: SN12C renal
DMS 114 small cell lung = test system: DMS 114 small cell lung
UACC-62 melanoma = test system: UACC-62 melanoma
HS 578T breast = test system: HS 578T breast

SMILES	TGI (NCI-H460 lung) [µM]	TGI (EKVX NSCLC) [µM]	TGI (LXFL 529 NSCLC) [µM]	TGI (NCI-H23 lung) [µM]	TGI (SW-620 colon)	TGI (HL-60(TB) leukemia) [µM]	TGI (SN12C renal) [µM]	TGI (DMS 114 small cell lung) [µM]	TGI (UACC-62 melanoma) [µM]	GI50 (NCI-H460 lung) [µM]	GI50 (EKVX NSCLC) [µM]	GI50 (UACC-62 melanoma) [µM]	GI50 (NCI-H23 lung) [µM]	GI50 (SW-620 colon)	GI50 (HL-60(TB) leukemia) [µM]	GI50 (HS 578T breast) [µM]	TGI (HS 578T breast) [µM]	GI50 (SN12C renal) [µM]
CCc1ccccc1NC(=O)C1=C(C)NC(C)=C(C(=O)Nc2ccccc2CC)C1c1ccccc1Cl	> 100	> 100	> 100	> 100	> 100 µM	> 100	> 100	> 100										
Cc1c2ccncc2c(C)c2c1[nH]c1ccc(OC(C)C)cc12	2.25	2.81	2.1	2.93	1.89 µM	4.46	2.45	3.24										
Cc1ccc(NCC(=O)N2CC(=O)Nc3ccccc32)c(C)c1	> 100	> 100	> 100	> 100	> 100 µM	> 100	> 100		> 100									
COc1ccc(-c2nn(-c3cccc(Cl)c3)cc2-c2cc(-c3cccs3)[nH]c(=S)n2)cc1	11	21.7		16.2	22.3 µM	13.2	> 100		19.2	3.01	1.93	2.78	3.43	3.79 µM	3.49	4.26	> 100	3.92
Cc1cc(CC(=O)NCCO)n(CCO)c(=O)c1	> 100		> 100	> 100	> 100 µM	> 100	> 100	> 100	> 100									
CC[C@@H]1c2c(C#N)ncn2-c2cnc(Nc3ccc(C(=O)NC4CCN(C5CCN(CC6CC6)CC5)CC4)cc3OC)nc2N1C1CCCC1	1.28	2.46		1.38	1.76 µM and 1.78 µM	0.104	1.91		1.79	0.0354	1.06	0.372	0.0374	0.0308 µM and 0.0327 µM	0.0249	0.069	1.78	0.0916
O=c1[nH]c(=O)c2cn[nH]c2[nH]1	> 100	> 100		> 100	> 100 µM	> 100	> 100		> 100	> 100	> 100	> 100	> 100	> 100 µM	> 100	> 100	> 100	> 100
COc1ccc(-c2cc3c(c4cc(OC)ccc24)C(=O)OC3=O)cc1	> 100	> 100		> 100	> 100 µM	> 100	> 100		> 100								> 100	
COC12C=C/C(=C(/C(=O)OCc3cncnc3)C(=O)CCCCCCCCC3(OC)C=C/C(=C(/C(=O)OCc4cncnc4)C(=O)CCCCCCCC1)O3)O2	1.91	2.39		0.839	1.19 µM	2.82	1.98		1.21	0.71	0.717	0.533	0.186	0.19 µM	0.387	1.3	6.24	0.404
COc1ccc2[nH]cc(-c3ccc(-c4c[nH]c5ccc(OC)cc45)s3)c2c1	9.32	26.9		26.2	8.15 µM	6.27	33.6		30.8	2.88	8.33	13.3	6.36	2.94 µM	1.59	8.99	44.6	11.1
C/C=C(\C)C(=O)NC1=CC[C@@]2(C)C(=CCC3C2CC[C@@]2(C)C3CC[C@@H]2C(C)N(C)C)C1=O (stereo partly drawn)	4.98	51.8		25.1	4.91 µM	5.2	22.3		3.85	2.06	3.17	1.82	3.95	2.02 µM	1.42	4.65	23.2	4.47
CN(Cc1ccccc1)C(=NC#N)N(Cc1ccccc1)Cc1ccccc1	> 90.1	> 100	70.2	64	> 100 µM	> 100	> 92.9		55.6								> 100	
COC(=O)NC(=O)c1cn(C2OC(CO)C(O)C2O)c(=O)[nH]c1=O (stereo not drawn)	> 100		> 100	> 100	> 100 µM	> 100	> 100		> 100									
CN(CCO)CC[C@H](CSc1ccccc1)Nc1ccc(S(=O)(=O)NC(=O)c2ccc(N3CCC([C@@H](O)c4ccccc4-c4ccc(Cl)cc4)CC3)cc2)cc1S(=O)(=O)C(F)(F)F	19.9	> 100		> 100	8.91 µM	8.1	11.5		4.13	4.74	20.4	1.8	17.7	2.43 µM	0.886	2.23	7.27	2.99
C[C@H](NC(=O)[C@@H](C)N)[C@H](Oc1ccc2c(cnn2-c2ccc(F)cc2)c1)c1ccc2c(c1)OCCO2	3.15	12.1		15.6	3.36 µM	4.94	4.27		3.39	1.56	1.04	1.87	3.93	1.71 µM	2.28	3.67	13.1	1.29
CS(=O)(=O)OC1CCC2(C#N)CCC1C2=O (stereo not drawn)	> 100	> 100	> 100	> 100		> 100	> 100		> 100									
ClCc1cccc2c(CCl)cccc12	2.65	16.6		22.8	19.1 µM	> 100	32.2		23.3	0.767	2.83	3.25	5.2	3.4 µM	4.49	1.86	6.7	3.47
CCOC(=O)N1CCN(/[N+]([O-])=N/Oc2ccc([N+](=O)[O-])cc2[N+](=O)[O-])CC1	18	32.6		3.69	35.7 µM	0.201	6.92		12.8	4.41	12.6	2.65	1.82	0.434 µM	0.0761	5.84	37.4	1.45
